Test results from article PMC10748408 (Frontiers in Oncology, 2023).

Columns and labels:
Type in all cases: in vivo, BALB/c mice
CLEC12A = test: Western blot of CLEC12A in tumor tissues; conditions: ART treatment, dose-dependent
Protocol: Normal and tumor tissues were homogenized in ice-cold radioimmunoprecipitation assay (RIPA) buffer containing a protease inhibitor cocktail. Proteins were resolved by 10% sodium dodecyl sulphate-polyacrylamide gel electrophoresis (SDS-PAGE), transferred onto polyvinylidene difluoride (PVDF) membranes, blocked with 5% fat-free milk and incubated with primary antibodies (1:1000 dilution) overnight at 4°C. Blots were subsequently washed and incubated with respective secondary antibodies, tagged with horseradish peroxidase. Protein expression was detected using enhanced chemiluminescence (ECL) kit ([37]). Blots were analyzed using the Gel Doc XR and band intensity quantified using ImageJ software (NIH, USA).

normal mice = test: Hematological parameters of normal mice treated with ART
Protocol: Blood was drawn for hematological estimations by thoracotomy and collected in heparinized vials. Blood was diluted using RBC diluting fluid (1: 1000) and WBC diluting fluid (1:100), and RBCs and WBCs were counted using a Neubauer counting chamber. Differential count was performed on blood smear stained with Leishman stain and observed under a microscope at 40X magnification (Dewinter Optical Inc., India). The percentage of lymphocytes, neutrophils, monocytes, eosinophils and basophils were recorded according to their nuclear structure ([27]). Hemoglobin content was estimated using Drabkin’s solution (1g sodium bicarbonate, 0.05g potassium cyanide and 0.2g potassium ferricyanide per liter), which lysed RBCs to convert hemoglobin to cyanmethemoglobin. Finally, the hemoglobin content of the test and the standard samples were obtained in gm/dl by recording the O.D. at 540 nm, and using the formula: O.D of test/O.D of standard x concentration of standard ([28]).

tumor-bearing mice = test: Mean survival time of tumor-bearing mice; conditions: for MST: tumor-bearing mice, observed 90 days
Protocol: MST was calculated using the equation: MST (days) = (day of first mortality + day of last mortality)/2. The increase in survivability between treated and untreated groups was estimated by ILS% = [(MST of treated set/MST of untreated set) -1] X 100 ([26]).

[1] = system: ALDH+ cells (CSCs) of mammary tumors; test: ALDH+ population estimation (Aldefluor) in tumors; conditions: untreated tumor 24.1%
Protocol: Mammary fat pad and tumor tissues (1 × 10^6 cells/ml) were resuspended in aldefluor™ assay buffer containing ALDH substrate and incubated for 45 minutes at 37°C. As a control, cells were resuspended in buffer containing aldefluor substrate in the presence of diethylaminobenzaldehyde (DEAB), a specific ALDH inhibitor. The fluorescent ALDH^+ cells were detected in the green fluorescence channel (520-540nm) in a flow cytometer (BD FACS Aria III). ALDH^+ and ALDH^- cells were eventually sorted using the BD Aria III Cell Sorter and sorted cells collected for further analysis (BD Biosciences, USA; [21]).

Structure (SMILES): C[C@@H]1CC[C@H]2[C@@H](C)C(=O)O[C@@H]3O[C@@]4(C)CC[C@@H]1[C@]32OO4 [ART, Artemisinin]
- expression of CLEC12A (CLEC12A): reduced
- Differential Count % B (Basophils) (normal mice; ART 6.25 mg/kg body wt): 0%
- Differential Count % E (Eosinophils) (normal mice; ART 6.25 mg/kg body wt): 0%
- Differential Count % L (Lymphocytes) (normal mice; ART 6.25 mg/kg body wt): 67± 4.1%
- Differential Count % M (Monocytes) (normal mice; ART 6.25 mg/kg body wt): 0%
- Differential Count % N (Neutrophils) (normal mice; ART 6.25 mg/kg body wt): 33± 3.1%
- Hb (normal mice; ART 6.25 mg/kg body wt): 13.1 ± 0.45 g/dL
- Total RBC (normal mice; ART 6.25 mg/kg body wt): 8.1± 0.62 10^6cells/mm^3
- Differential Count % B (Basophils) (normal mice; ART 12.5 mg/kg body wt): 0%
- Differential Count % E (Eosinophils) (normal mice; ART 12.5 mg/kg body wt): 0%
- Differential Count % L (Lymphocytes) (normal mice; ART 12.5 mg/kg body wt): 72± 1.7%
- Differential Count % M (Monocytes) (normal mice; ART 12.5 mg/kg body wt): 0%
- Differential Count % N (Neutrophils) (normal mice; ART 12.5 mg/kg body wt): 28± 3.5%
- Hb (normal mice; ART 12.5 mg/kg body wt): 14.1 ± 0.47 g/dL
- Total RBC (normal mice; ART 12.5 mg/kg body wt): 7.8± 0.38 10^6cells/mm^3
- Total WBC (normal mice; ART 12.5 mg/kg body wt): 8.3± 1.8 10^3 cells/mm^3
- Differential Count % B (Basophils) (normal mice; ART 25 mg/kg body wt): 0%
- Differential Count % E (Eosinophils) (normal mice; ART 25 mg/kg body wt): 0%
- Differential Count % L (Lymphocytes) (normal mice; ART 25 mg/kg body wt): 74± 3.4%
- Differential Count % M (Monocytes) (normal mice; ART 25 mg/kg body wt): 0%
- Differential Count % N (Neutrophils) (normal mice; ART 25 mg/kg body wt): 26± 2.3%
- Hb (normal mice; ART 25 mg/kg body wt): 14.7 ± 0.39 g/dL
- Total RBC (normal mice; ART 25 mg/kg body wt): 8.2± 0.34 10^6cells/mm^3
- Total WBC (normal mice; ART 25 mg/kg body wt): 8.75± 2.6 10^3 cells/mm^3
- Differential Count % B (Basophils) (normal mice; ART 50 mg/kg body wt): 0%
- Differential Count % E (Eosinophils) (normal mice; ART 50 mg/kg body wt): 0%
- Differential Count % L (Lymphocytes) (normal mice; ART 50 mg/kg body wt): 70± 2.2%
- Differential Count % M (Monocytes) (normal mice; ART 50 mg/kg body wt): 1%
- Differential Count % N (Neutrophils) (normal mice; ART 50 mg/kg body wt): 29 ± 3.2%
- Hb (normal mice; ART 50 mg/kg body wt): 13.8 ± 0.41 g/dL
- Total RBC (normal mice; ART 50 mg/kg body wt): 8.1± 0.41 10^6cells/mm^3
- Total WBC (normal mice; ART 50 mg/kg body wt): 8.3± 1.44 10^3 cells/mm^3
- mean survival of tumor-bearing mice treated with ART (tumor-bearing mice; Kaplan-Meier plot, untreated succumbed within 50 days): ~90 days
- MST (tumor-bearing mice; ART 6.25 mg/kg body wt): 48.2 ± 17.3 days
- MST (tumor-bearing mice; ART 12.5 mg/kg body wt): 61.3 ± 8.9 days
- MST (tumor-bearing mice; ART 25 mg/kg body wt): 75.4 ± 7.1 days
- MST (tumor-bearing mice; ART 50 mg/kg body wt): 88.3 ± 8.9 days
- percentage of ALDH+ cells ([1]; T+ 25: ART 25 mg/kg): 8.1%
- percentage of ALDH+ cells ([1]; T+ 50: ART 50 mg/kg): 6.2%
